Assay results as given in US20260374817A1, “COMPOSITIONS COMPRISING TREM-1 INHIBITORS AND USES THEREOF” (INOTREM, priority 2023, published 2026).
Entries after “also recorded” stand apart in the source; their conditions may differ.

Columns and labels:
TREM-1 pathway = experiment: ROS production by LPS-stimulated human primary neutrophils (DCFDA, flow cytometry, MFI); format: cell-based; conditions: for decrease of LPS-induced ROS production: 100 ng/mL LPS, 2 hours, 37 °C, LR12 or LR12-dimer 10 and 50 μg/mL; for TREM-1 inhibiting property / biological activity: preclinical in vitro pharmacology model
Procedure: FIG. 1 is a graph showing the results from flow cytometric quantification (DCFDA reduction) of neutrophils ROS production after 2 hours stimulation with LPS, LPS+10 μg/mL LR12, LPS+50 μg/mL LR12, LPS+10 μg/mL LR12-dimer (dimer), LPS+50 μg/mL LR12-dimer (dimer). […]; **p<0.01 (T test).
Neutrophils produce reactive oxygen species (ROS) in presence of LPS (lipopolysaccharides) following activation of the TREM-1 pathway and are thus used in the present example in order to assess TREM-1 activation and the biological activity of the LR12 dimer on the TREM-1 pathway. ROS production induced by TREM-1 activation and its modulation by LR12 can be quantified by flow cytometry. Any decrease in ROS production by LR12 (LPS+LR12 conditions) translates into a decrease in mean fluorescence intensity (MFI) as compared to the ROS production observed following the TREM-1 activation in presence of LPS (LPS condition).
Primary human neutrophils were isolated from the peripheral blood of healthy donors by immunomagnetic negative cell sorting with EasySep™ Human Monocyte/Neutrophil Isolation Kits (StemCell, Canada) following the manufacturer's instructions. Purity was assessed by flow cytometry. Cells were suspended in RPMI 1640 medium containing GlutaMAX and supplemented with 10% FCS, 25 mM HEPES, 100 U/ml penicillin and streptomycin before stimulation. Human primary neutrophils were incubated in resting conditions (also referred to as control conditions or ctrl 2), or with 100 ng/mL LPS from E. coli serotype 0127: B8 (Sigma-Aldrich), with or without LR12 or LR12-dimer (dimer) at the indicated concentrations.
Upon cleavage of the acetate groups by intracellular esterases and oxidation, the nonfluorescent DCFDA is converted to the highly fluorescent 2′,7′-dichlorofluorescein (DCF). 2.5×10^5 isolated human neutrophils were incubated 2 hours at 37 °C-5% CO2 with 5 μM of DCFDA, with or without 100 ng/mL LPS, and with or without LR12 or LR12-dimer (dimer) at the indicated concentrations. Data were acquired using flow cytometry. Results are expressed as mean fluorescence intensity (MFI).

[1] = Solubility of LR12 in formulations / screening of solubility aids; format: physicochemical
Procedure: Briefly, to reduce the formation of disulfide bridges, the pH during the formulation process was reduced to below 6.0. However, LR12 contains 4 acidic, negatively charged amino acids, namely glutamate (Glu) and aspartate (Asp) and no basic amino acids.
To solve this problem, solubility aids were screened at pH 5.5 and 6.5.
The purified substance of LR12 peptide (of example 2) is formulated using the following excipients: 50 mM sodium citrate pH 5.5; 50 mM NaCl.
The purified substance of LR12 peptide (of example 2) is formulated using the following excipients: 50 mM sodium phosphate pH 6.5; 50 mM NaCl.
The purified substance of LR12 peptide (of example 2) is formulated using the following excipients: 50 mM sodium citrate pH 5.5; 200 mM mannitol.
The purified substance of LR12 peptide (of example 2) is formulated using the following excipients: 50 mM sodium citrate pH 5.5; 150 mM betaine.
The purified substance of LR12 peptide (of example 2) is formulated using the following excipients: 5 0 mM sodium citrate pH 5.5; 50 mM lysine; 50 mM NaCl.
The purified substance of LR12 peptide (of example 2) is formulated using the following excipients: 50 mM sodium citrate pH 5.5; 50 mM arginine.
The purified substance of LR12 peptide (of example 2) is formulated using the following excipients: 25 mM sodium citrate pH 5.5; 225 mM arginine; 65 mM HCl.
Formulations using incremental concentrations of the purified substance of LR12 peptide (of example 2) and incremental concentrations of the following excipients: Arginine 90 to 420 mM, using only HCl for pH adjustment to 5.5.

TREM-1 signaling = conditions: Derive et al., 2012; cited from earlier work
[2] = tested on: adult minipig model of induced sepsis; conditions: after induction of fecal peritonitis; Derive et al., 2013; cited from earlier work

## CSCC[C@H](NC(=O)[C@H](CSSC[C@H](NC(=O)CNC(=O)[C@H](Cc1ccc(O)cc1)NC(=O)[C@H](CCC(=O)O)NC(=O)CNC(=O)[C@H](C)NC(=O)[C@H](CC(=O)O)NC(=O)[C@H](CCC(=O)O)NC(=O)[C@H](CCC(=O)O)NC(=O)[C@H](CCC(N)=O)NC(=O)[C@@H](N)CC(C)C)C(=O)N[C@@H](CCSC)C(N)=O)NC(=O)CNC(=O)[C@H](Cc1ccc(O)cc1)NC(=O)[C@H](CCC(=O)O)NC(=O)CNC(=O)[C@H](C)NC(=O)[C@H](CC(=O)O)NC(=O)[C@H](CCC(=O)O)NC(=O)[C@H](CCC(=O)O)NC(=O)[C@H](CCC(N)=O)NC(=O)[C@@H](N)CC(C)C)C(N)=O [LR12 dimer]
TREM-1 pathway
  decrease of LPS-induced ROS production: not able to decrease the production of ROS by LPS-activated neutrophils
  TREM-1 inhibiting property / biological activity: did not display any TREM-1 inhibiting property; also recorded: inactive in a preclinical in vitro pharmacology model; also recorded: biologically inactive
TREM-1 pathway; listed as LR12-dimer
  TREM-1 inhibiting property / biological activity: not able to induce any pharmacological inhibition of TREM-1

## CSCC[C@H](NC(=O)[C@H](CS)NC(=O)CNC(=O)[C@H](Cc1ccc(O)cc1)NC(=O)[C@H](CCC(=O)O)NC(=O)CNC(=O)[C@H](C)NC(=O)[C@H](CC(=O)O)NC(=O)[C@H](CCC(=O)O)NC(=O)[C@H](CCC(=O)O)NC(=O)[C@H](CCC(N)=O)NC(=O)[C@@H](N)CC(C)C)C(N)=O [LR12]
TREM-1 pathway
  decrease of LPS-induced ROS production: able to decrease in a dose-dependent manner the LPS-induced release of ROS
[1]; below pH 5.0
  solubility below pH 5.0: barely soluble below pH 5.0
[1]; pH 5.5 and 6.5, Tween 20, mannitol, sucrose, trehalose, betaine, urea, glutathione, ammonium acetate, citrate
  solubility with solubility aids (no improvement): failed to improve the solubility of LR12
[1]; screened at pH 5.5 and 6.5, only by adding lysine or arginine or histidine, read-out: solubility reached with positively charged solubility enhancing agents
  solubility: 40 mg/mL
TREM-1 signaling
  anti-inflammatory properties: exhibit anti-inflammatory properties by inhibiting TREM-1 signaling
[2]
  cardiovascular failure: reduced cardiovascular failure
  survival: improved survival
